Experimental data as given in patent US12509444B2, “Compounds and methods for CD73 modulation and indications therefor” (Plexxikon Inc., priority 2019, dated 2025).

How the values were obtained:
human CD73 = target: T1, human CD73 (Homo sapiens, UniProt P21589); assay: Inhibitor activity against CD73 in cell based assay (CD73 expressing CHO-K1 cells); settings: CHO-K1 cells expressing human CD73, 150 μM AMP, 4 hours of incubation; read-out: CHO-K1 CELL VARIANT: CD73 IC50
T1 construct: expressed in transfected cells
T1 sequence (P21589 27-549): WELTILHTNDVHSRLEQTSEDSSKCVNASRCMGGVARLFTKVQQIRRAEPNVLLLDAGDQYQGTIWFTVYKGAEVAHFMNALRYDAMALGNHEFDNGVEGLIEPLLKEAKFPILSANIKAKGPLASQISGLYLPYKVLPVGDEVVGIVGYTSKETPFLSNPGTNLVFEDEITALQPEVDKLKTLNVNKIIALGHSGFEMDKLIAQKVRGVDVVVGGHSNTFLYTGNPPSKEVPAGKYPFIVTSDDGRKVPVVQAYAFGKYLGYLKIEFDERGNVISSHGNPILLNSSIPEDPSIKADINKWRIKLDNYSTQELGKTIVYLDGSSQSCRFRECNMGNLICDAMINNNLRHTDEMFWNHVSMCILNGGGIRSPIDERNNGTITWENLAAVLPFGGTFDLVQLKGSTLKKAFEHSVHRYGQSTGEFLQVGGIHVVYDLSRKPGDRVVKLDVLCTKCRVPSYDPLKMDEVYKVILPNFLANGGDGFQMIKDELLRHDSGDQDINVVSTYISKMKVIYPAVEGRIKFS
Method: Determine Inhibitor Activity Against CD73 in Cell Based Assay
CD73 expressing CHO-K1 cell clones were generated upon stable transfection of a plasmid expressing human CD73 under the control of CMV promoter. Cells were selected in Ham's F-12K (Kaighn's) media supplemented with 10% fetal bovine serum and 1 mg/ml G418 at 37° C. in a humidified incubator supplied with 5% CO2. The assays were performed as follows. Cells were seeded in a 96 well plate in 50 μL of culture media at a density of 1×10^4 per well. Compound at a maximal concentration of 5 mM was serially diluted 1:3 in DMSO for a total of 8 point titration. A 2 μL aliquot of each dilution point was added to 248 μL culture media and 25 µL was added to each well, providing 10 μM compound at the maximum concentration point. AMP was diluted in culture media and 25 μL was added to each well with a final concentration of 150 μM. 4 wells containing 0.2% DMSO treated cells and AMP served as high controls and 4 wells containing media only with 0.2% DMSO and AMP served as low controls. After 4 hours of incubation, 20 μL of the supernatant was transferred to a 384 well plate. AMP level in supernatant was measured indirectly by adding 5 μL of CellTiter-Glo® 2.0 reagent and 5 μL of ATP with a final concentration of 1 μM. Following incubation of plate at room temperature for 30 minutes, luminescent signal was read on a Tecan plate reader. The percentage inhibition at individual concentrations relative to high and low controls was calculated. The data were analyzed by using nonlinear regression to generate IC50 values.

[1] = target: T2, Human CD73 (amino acid residues 27-549) (Homo sapiens, UniProt P21589); assay: CD73 enzymatic assay (luciferase-based indirect assay, CellTiter-Glo); type: biochemical; settings: 0.4 nM CD73, 150 μM AMP, 1 hour at room temperature
T2 construct: Human CD73 (amino acid residues 27-549); His tag (N); made in house; host or cells: E. coli
T2 sequence (P21589 27-549): T1 sequence (P21589 27-549)
Method: CD73 enzymatic activity was measured in a luciferase-based indirect assay using CellTiter-Glo® system from Promega. The luciferase reaction in the presence of ATP is inhibited by AMP, a primary substrate of CD73. Addition of CD73 enzyme to the reaction converts AMP to adenosine, and release the inhibition, producing a luminescent signal. Inhibition of CD73 leads to the decrease of this luminescent signal.
Human CD73 (amino acid residues 27-549) with N-Terminal His tag was purified in E. coli. All the assay components were prepared in 50 mM HEPEs buffer (pH 7.4) with 0.01% Tween® 20. The CD73 enzymatic assay was performed using 0.4 nM CD73 and 150 μM AMP. 9.5 μL of CD73 protein and 9.5 μL of AMP were added to the wells of a 384 well plate containing 1 μL of various concentrations of test compound or DMSO vehicle and incubated for 1 hour at room temperature. 16 wells containing CD73, AMP and 5% DMSO served as high control. 16 wells containing AMP and 5% DMSO served as low control. Enzymatic reaction was stopped and AMP level was measured indirectly by adding 5 μL of CellTiter-Glo® 2.0 reagent and 5 μL of ATP with a final concentration of 1 μM. Following incubation of the plate at room temperature for 30 minutes, luminescent signal was read on a Tecan plate reader. The percentage inhibition at individual concentrations relative to high and low controls was calculated. The data were analyzed by using nonlinear regression to generate IC50 values.

SMILES	IC50 (human CD73) [µM]	IC50 [1] [µM]
O=C(N[C@@H]1CCN(c2cn[nH]c(=O)c2Cl)C1)OC1CCCCC1 [P-0015, cyclohexyl (R)-(1-(5-chloro-6-oxo-1,6-dihydropyridazin-4-yl)pyrrolidin-3-yl)carbamate]	10 to 100	0.001 to 10
O=C(NC1CCCC1)O[C@@H]1CCN(c2cn[nH]c(=O)c2Cl)C1 [P-0017, (R)-1-(5-chloro-6-oxo-1,6-dihydropyridazin-4-yl)pyrrolidin-3-yl cyclopentylcarbamate]	0.001 to 10	0.001 to 10
O=C(NC1CCCCC1)O[C@@H]1CCN(c2cn[nH]c(=O)c2Cl)C1 [P-0018, (R)-1-(5-chloro-6-oxo-1,6-dihydropyridazin-4-yl)pyrrolidin-3-yl cyclohexylcarbamate]	0.001 to 10	0.001 to 10
O=C(NC1CCCC1)O[C@H]1CCN(c2cn[nH]c(=O)c2Cl)C1 [P-0020, (S)-1-(5-chloro-6-oxo-1,6-dihydropyridazin-4-yl)pyrrolidin-3-yl cyclopentylcarbamate]	10 to 100	0.001 to 10
O=C(NC1CCCCC1)O[C@H]1CCN(c2cn[nH]c(=O)c2Cl)C1 [P-0021, (S)-1-(5-chloro-6-oxo-1,6-dihydropyridazin-4-yl)pyrrolidin-3-yl cyclohexylcarbamate]	10 to 100	0.001 to 10
O=C(NC1CCC(F)(F)CC1)N[C@@H]1CCN(c2cn[nH]c(=O)c2Cl)C1 [P-0022, (R)-1-(1-(5-chloro-6-oxo-1,6-dihydropyridazin-4-yl)pyrrolidin-3-yl)-3-(4,4-difluorocyclohexyl)urea]	10 to 100	0.001 to 10
O=C(N[C@@H]1CCN(c2cn[nH]c(=O)c2Cl)C1)OC1CCCC1 [P-0030, cyclopentyl (R)-(1-(5-chloro-6-oxo-1,6-dihydropyridazin-4-yl)pyrrolidin-3-yl)carbamate]	10 to 100	0.001 to 10
O=C(NC1CCCCC1)N[C@@H]1CCN(c2cn[nH]c(=O)c2Cl)C1 [P-0039, (R)-1-(1-(5-chloro-6-oxo-1,6-dihydropyridazin-4-yl)pyrrolidin-3-yl)-3-cyclohexylurea]	0.001 to 10	0.001 to 10
O=C(NC1CCCC1)N[C@@H]1CCN(c2cn[nH]c(=O)c2Cl)C1 [P-0046, (R)-1-(1-(5-chloro-6-oxo-1,6-dihydropyridazin-4-yl)pyrrolidin-3-yl)-3-cyclopentylurea]	0.001 to 10	0.001 to 10
O=C(NC1CCN(C(=O)C(F)(F)F)CC1)N[C@@H]1CCN(c2cn[nH]c(=O)c2Cl)C1 [P-0047, (R)-1-(1-(5-chloro-6-oxo-1,6-dihydropyridazin-4-yl)pyrrolidin-3-yl)-3-(1-(2,2,2-trifluoroacetyl)piperidin-4-yl)urea]	10 to 100	0.001 to 10
CC(C)(C)OC(=O)N1CCC(NC(=O)N[C@@H]2CCN(c3cn[nH]c(=O)c3Cl)C2)CC1 [P-0051, tert-butyl (R)-4-(3-(1-(5-chloro-6-oxo-1,6-dihydropyridazin-4-yl)pyrrolidin-3-yl)ureido)piperidine-1-carboxylate]	10 to 100	0.001 to 10
CS(=O)(=O)N1CCC(NC(=O)N[C@@H]2CCN(c3cn[nH]c(=O)c3Cl)C2)C1 (stereo partly drawn) [P-0052, 1-((R)-1-(5-chloro-6-oxo-1,6-dihydropyridazin-4-yl)pyrrolidin-3-yl)-3-(1-(methylsulfonyl)pyrrolidin-3-yl)urea]	10 to 100	0.001 to 10
O=C(NC1CCS(=O)(=O)C1)N[C@@H]1CCN(c2cn[nH]c(=O)c2Cl)C1 (stereo partly drawn) [P-0054, 1-((R)-1-(5-chloro-6-oxo-1,6-dihydropyridazin-4-yl)pyrrolidin-3-yl)-3-(1,1-dioxidotetrahydrothiophen-3-yl)urea]	10 to 100	0.001 to 10

The next lines start with the values.

IC50 (human CD73) [µM]	IC50 [1] [µM]	SMILES
10 to 100	0.001 to 10	Cc1c(N2CC[C@@H](NC(=O)OC(C)(C)C)C2)cn[nH]c1=O [P-0056, tert-butyl (R)-(1-(5-methyl-6-oxo-1,6-dihydropyridazin-4-yl)pyrrolidin-3-yl)carbamate]
10 to 100	0.001 to 10	Cc1c(N2CC[C@@H](NC(=O)NC3CCCC3)C2)cn[nH]c1=O [P-0057, (R)-1-cyclopentyl-3-(1-(5-methyl-6-oxo-1,6-dihydropyridazin-4-yl)pyrrolidin-3-yl)urea]
10 to 100	0.001 to 10	Cc1c(N2CC[C@@H](NC(=O)NC3CCCC3)C2)cnn(C(=O)NC2CCCC2)c1=O [P-0058, (R)-N-cyclopentyl-4-(3-(3-cyclopentylureido)pyrrolidin-1-yl)-5-methyl-6-oxopyridazine-1(6H)-carboxamide]
10 to 100	0.001 to 10	Cc1c(N2CC[C@@H](NC(=O)NC3CCCCC3)C2)cn[nH]c1=O [P-0059, (R)-1-cyclohexyl-3-(1-(5-methyl-6-oxo-1,6-dihydropyridazin-4-yl)pyrrolidin-3-yl)urea]
10 to 100	0.001 to 10	C[C@H]1CN(c2cn[nH]c(=O)c2Cl)C[C@@H]1NC(=O)NC1CCCCC1 [P-0062, 1-((3R,4S)-1-(5-chloro-6-oxo-1,6-dihydropyridazin-4-yl)-4-methylpyrrolidin-3-yl)-3-cyclohexylurea]
10 to 100	0.001 to 10	C[C@H]1CN(c2cn[nH]c(=O)c2Cl)C[C@@H]1NC(=O)OC1CCCCC1 [P-0063, cyclohexyl ((3R,4S)-1-(5-chloro-6-oxo-1,6-dihydropyridazin-4-yl)-4-methylpyrrolidin-3-yl)carbamate]
10 to 100	0.001 to 10	N#Cc1c(N2CC[C@@H](NC(=O)NC3CCCC3)C2)cn[nH]c1=O [P-0064, (R)-1-(1-(5-cyano-6-oxo-1,6-dihydropyridazin-4-yl)pyrrolidin-3-yl)-3-cyclopentylurea]
0.001 to 10	0.001 to 10	N#Cc1c(N2CC[C@@H](NC(=O)NC3CCCCC3)C2)cn[nH]c1=O [P-0065, (R)-1-(1-(5-cyano-6-oxo-1,6-dihydropyridazin-4-yl)pyrrolidin-3-yl)-3-cyclohexylurea]
10 to 100	0.001 to 10	CN(C(=O)OC1CCCCC1)C1CCN(c2cn[nH]c(=O)c2Cl)C1 (centres unmarked) [P-0068, cyclohexyl (1-(5-chloro-6-oxo-1,6-dihydropyridazin-4-yl)pyrrolidin-3-yl)(methyl)carbamate]
10 to 100	0.001 to 10	N#CC1(NC(=O)OC2CCCCC2)CCN(c2cn[nH]c(=O)c2Cl)C1 (centres unmarked) [P-0074, cyclohexyl (1-(5-chloro-6-oxo-1,6-dihydropyridazin-4-yl)-3-cyanopyrrolidin-3-yl)carbamate]
10 to 100	0.001 to 10	CS(=O)(=O)N1CCC(NC(=O)N[C@@H]2CCN(c3cn[nH]c(=O)c3Cl)C2)CC1 [P-0076, (R)-1-(1-(5-chloro-6-oxo-1,6-dihydropyridazin-4-yl)pyrrolidin-3-yl)-3-(1-(methylsulfonyl)piperidin-4-yl)urea]
0.001 to 10	0.001 to 10	O=C(NC1CCCCC1)OC1CCN(c2cn[nH]c(=O)c2Cl)C1 (centres unmarked) [P-0077, 1-(5-chloro-6-oxo-1,6-dihydropyridazin-4-yl)pyrrolidin-3-yl cyclohexylcarbamate]
